Experimental data as given in publication PMC7576608, “Mechanisms of telomerase inhibition by oxidized and therapeutic dNTPs” (Nature Communications, 2020).
Values joined by “and” are separate entries in the source; they are usually repeats but may differ in a detail not shown here. Equal entries are not always repeated. Where two headings read alike, the source gives them in different places.

What was measured:
[1] = molecular target: T1, telomerase (Homo sapiens, UniProt O14746); assay: Telomerase extension after insertion of modified dNTP (percent of product terminated at each template position); type: biochemical; design: made in house; anti-FLAG immunopurification, eluted with 3xFLAG peptide; settings: Mean
Description: Direct telomerase assays were conducted with 5 nM ^32P-end labeled primer a and d Primer 3 (AGGGTT)3, b Primer 1 (TTAGGG)3, or c Primer 2 […]. […] Products were separated on denaturing gels. Letters on the y-axis of the graph indicate the template base; P indicates unextended 18-mer primer. Graphs represent percent of product terminated at each template position as a function of total products. Images are representative of, and data are the mean ± s.d. from, three independent experiments. Source data are provided as a Source Date file.
The reactions were started by the addition of 3 μl of immunopurified telomerase eluent, incubated at 37 °C for 1 h, then terminated with 2 μl of […] and heat inactivated at 65 °C for 20 min. An equal volume of loading buffer (94% formamide, 0.1× TBE, 0.1% bromophenol blue, 0.1% xylene cyanol) was added to the reaction eluent. The samples were heat denatured for 10 min at 100 °C and loaded onto a 14% denaturing acrylamide gel (7 M urea, 1× TBE) and electrophoresed for 90 min at constant 38 W. Samples were imaged using a Typhoon phosphorimager (GE Healthcare). Percent primer extension was calculated with ImageQuant TL 8.2 by measuring the intensity of each product band and dividing by the total radioactivity in the lane or total products, as indicated in the figure legends.

[2] = molecular target: T1, telomerase; assay: Telomerase repeat processivity IC50: modified dNTP titrated into reactions with all four natural dNTPs; type: biochemical; design: made in house; anti-FLAG immunopurification, eluted with 3xFLAG peptide
Summary of the method: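 Immunopurified human telomerase reactions with cellular-relevant levels of all four natural dNTPs plus modified dNTP titrated 0–10,000 μM, 1 h at 37 °C; products resolved on denaturing gels and phosphorimaged. Repeat processivity R1/2 = −ln(2)/slope of ln(100−%LB) vs repeat number; IC50 is concentration halving bulk repeat processivity.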

[3] = dose-response fit of processivity R 1/2, individual replicates
[4] = dose-response fit of processivity R 1/2 vs log(concentration), individual replicates

T1 sequence (O14746 whole entry): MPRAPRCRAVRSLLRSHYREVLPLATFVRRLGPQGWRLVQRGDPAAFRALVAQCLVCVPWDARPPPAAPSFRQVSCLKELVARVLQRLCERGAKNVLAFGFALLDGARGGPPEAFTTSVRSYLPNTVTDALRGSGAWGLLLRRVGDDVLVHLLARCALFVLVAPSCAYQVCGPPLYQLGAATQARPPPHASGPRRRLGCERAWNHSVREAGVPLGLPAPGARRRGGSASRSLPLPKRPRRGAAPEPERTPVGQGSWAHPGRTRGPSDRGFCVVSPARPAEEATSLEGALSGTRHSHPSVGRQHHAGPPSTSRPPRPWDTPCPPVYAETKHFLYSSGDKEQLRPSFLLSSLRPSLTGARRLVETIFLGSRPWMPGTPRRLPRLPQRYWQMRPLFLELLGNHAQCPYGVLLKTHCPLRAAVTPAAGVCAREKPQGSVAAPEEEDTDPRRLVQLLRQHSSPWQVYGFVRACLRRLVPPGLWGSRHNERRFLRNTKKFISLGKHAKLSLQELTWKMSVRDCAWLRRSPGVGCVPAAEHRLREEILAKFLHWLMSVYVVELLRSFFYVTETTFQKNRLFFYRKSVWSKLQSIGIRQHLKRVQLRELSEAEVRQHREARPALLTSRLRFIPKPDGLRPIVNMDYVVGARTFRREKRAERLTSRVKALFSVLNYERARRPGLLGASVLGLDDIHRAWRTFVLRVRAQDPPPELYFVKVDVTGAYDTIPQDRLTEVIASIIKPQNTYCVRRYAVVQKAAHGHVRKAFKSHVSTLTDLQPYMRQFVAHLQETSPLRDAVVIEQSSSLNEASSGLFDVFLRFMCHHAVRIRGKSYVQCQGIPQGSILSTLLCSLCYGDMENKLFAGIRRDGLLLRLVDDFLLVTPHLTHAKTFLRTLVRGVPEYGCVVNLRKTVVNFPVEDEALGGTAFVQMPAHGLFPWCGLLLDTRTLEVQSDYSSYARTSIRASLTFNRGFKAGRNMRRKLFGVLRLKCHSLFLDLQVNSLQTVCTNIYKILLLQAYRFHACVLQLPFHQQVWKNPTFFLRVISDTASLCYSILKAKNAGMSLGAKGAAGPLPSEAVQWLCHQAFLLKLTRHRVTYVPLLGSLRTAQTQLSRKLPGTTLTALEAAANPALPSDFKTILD

## Nc1ncnc2c1ncn2C1CC(O)C(COP(=O)(O)OP(=O)(O)OP(=O)(O)O)O1 (stereo not drawn) [dATP]
[1]; Fig 4a, Primer 3, 50 μM each dTTP, dGTP and dATP or 2-OH-dATP, terminated at rA3
  Percent of Total Product: 2.35%
[1]; Fig 4a, Primer 3, 50 μM each dTTP, dGTP and dATP or 2-OH-dATP, terminated at rA4
  Percent of Total Product: 1.56%
[1]; Fig 4a, Primer 3, 50 μM each dTTP, dGTP and dATP or 2-OH-dATP, terminated at rC1
  Percent of Total Product: 1.47%
[1]; Fig 4a, Primer 3, 50 μM each dTTP, dGTP and dATP or 2-OH-dATP, terminated at rC2
  Percent of Total Product: 0.77%
[1]; Fig 4a, Primer 3, 50 μM each dTTP, dGTP and dATP or 2-OH-dATP, terminated at rC6
  Percent of Total Product: 8.96%
[1]; Fig 4a, Primer 3, 50 μM each dTTP, dGTP and dATP or 2-OH-dATP, terminated at rU5 (first)
  Percent of Total Product: 4.92%
[1]; Fig 4a, Primer 3, 50 μM each dTTP, dGTP and dATP or 2-OH-dATP, terminated at rU5 (second, after translocation)
  Percent of Total Product: 0.73%

## Nc1nc2c(ncn2C2CC(O)C(COP(=O)(O)OP(=O)(O)OP(=O)(O)O)O2)c(=O)[nH]1 (stereo not drawn) [dGTP]
[1]; Fig 4b, Primer 1 (TTAGGG)3, 50 μM each dATP, dTTP and dGTP or 6-thio-dGTP, terminated at rA3
  Percent of Total Product: 7.65%
[1]; Fig 4b, Primer 1, 50 μM each dATP, dTTP and dGTP or 6-thio-dGTP, terminated at rA4
  Percent of Total Product: 5.26%
[1]; Fig 4b, Primer 1, 50 μM each dATP, dTTP and dGTP or 6-thio-dGTP, terminated at rC1
  Percent of Total Product: 0.66%
[1]; Fig 4b, Primer 1, 50 μM each dATP, dTTP and dGTP or 6-thio-dGTP, terminated at rC2
  Percent of Total Product: 0.40%
[1]; Fig 4b, Primer 1, 50 μM each dATP, dTTP and dGTP or 6-thio-dGTP, terminated at rC6
  Percent of Total Product: 4.56%
[1]; Fig 4b, Primer 1, 50 μM each dATP, dTTP and dGTP or 6-thio-dGTP, terminated at rU5
  Percent of Total Product: 0.95%
[1]; Fig 4c, Primer 2, 50 μM each dATP, dTTP and dGTP or 6-thio-dGTP, terminated at rA3
  Percent of Total Product: 5.15%
[1]; Fig 4c, Primer 2, 50 μM each dATP, dTTP and dGTP or 6-thio-dGTP, terminated at rA4
  Percent of Total Product: 4.76%
[1]; Fig 4c, Primer 2, 50 μM each dATP, dTTP and dGTP or 6-thio-dGTP, terminated at rC1
  Percent of Total Product: 7.39%
[1]; Fig 4c, Primer 2, 50 μM each dATP, dTTP and dGTP or 6-thio-dGTP, terminated at rC2
  Percent of Total Product: 1.97%
[1]; Fig 4c, Primer 2, 50 μM each dATP, dTTP and dGTP or 6-thio-dGTP, terminated at rC6
  Percent of Total Product: 6.22%
[1]; Fig 4c, Primer 2, 50 μM each dATP, dTTP and dGTP or 6-thio-dGTP, terminated at rU5
  Percent of Total Product: 1.19%
[1]; Fig 4d, Primer 3 (AGGGTT)3, 50 μM each dATP, dTTP and dGTP or 6-thio-dGTP, terminated at rU5
  Percent of Total Product: 4.50%
[1]; Fig 4d, Primer 3, 50 μM each dATP, dTTP and dGTP or 6-thio-dGTP, terminated at rA3
  Percent of Total Product: 2.21%
[1]; Fig 4d, Primer 3, 50 μM each dATP, dTTP and dGTP or 6-thio-dGTP, terminated at rC1
  Percent of Total Product: 1.49%
[1]; Fig 4d, Primer 3, 50 μM each dATP, dTTP and dGTP or 6-thio-dGTP, terminated at rC2
  Percent of Total Product: 0.72%
[1]; Fig 4d, Primer 3, 50 μM each dATP, dTTP and dGTP or 6-thio-dGTP, terminated at rC6
  Percent of Total Product: 8.67%

## O=c1[nH]cnc2c1ncn2C1CCC(COP(=O)(O)OP(=O)(O)OP(=O)(O)O)O1 (stereo not drawn) [ddITP]
[2]; cellular relevant natural dNTPs, modified dNTP titrated 0 to 10,000 μM, based on repeat processivity, mean ± SD, read-out: Telomerase processivity IC50
  IC50: 61 ± 23 µM
[2]; ddITP 31μM
  YIntercept (line fit of ln(100-%LB) vs # telomere repeats): 3.68 and 3.90 and 3.32
[2]; ddITP 31μM, telomere repeat 1
  ln(100-%LB): 3.63 and 3.77 and 3.47
[2]; ddITP 31μM, telomere repeat 2
  ln(100-%LB): 2.96 and 3.17 and 2.59
[2]; ddITP 31μM, telomere repeat 3
  ln(100-%LB): 2.31 and 2.52 and 1.69
[2]; ddITP 31μM, telomere repeat 4
  ln(100-%LB): 1.98 and 2.18 and 1.18
[2]; ddITP 62μM
  YIntercept (line fit of ln(100-%LB) vs # telomere repeats): 4.03 and 4.15
[2]; ddITP 62μM, telomere repeat 1
  ln(100-%LB): 3.64 and 3.75
[2]; ddITP 62μM, telomere repeat 2
  ln(100-%LB): 2.81 and 2.79
[2]; ddITP 62μM, telomere repeat 3
  ln(100-%LB): 1.96 and 1.84
[2]; ddITP 62μM, telomere repeat 4
  ln(100-%LB): 1.44 and 1.17
[2]; ddITP 62μM, telomere repeat 5
  ln(100-%LB): 0.94 and 0.56
[2]; ddITP 250μM
  YIntercept (line fit of ln(100-%LB) vs # telomere repeats): 4.62 and 3.98
[2]; ddITP 250μM, telomere repeat 1
  ln(100-%LB): 3.84 and 3.61
[2]; ddITP 250μM, telomere repeat 2
  ln(100-%LB): 2.72 and 2.32
[2]; ddITP 250μM, telomere repeat 3
  ln(100-%LB): 1.42 and 1.15
[2]; ddITP 250μM, telomere repeat 4
  ln(100-%LB): 0.59 and 0.39
[2]; ddITP 500μM
  Slope (line fit of ln(100-%LB) vs # telomere repeats): -0.95
  YIntercept (line fit of ln(100-%LB) vs # telomere repeats): 4.49
[2]; ddITP 500μM, telomere repeat 1
  ln(100-%LB): 3.63 and 3.72
[2]; ddITP 500μM, telomere repeat 2
  ln(100-%LB): 2.49 and 2.52
[2]; ddITP 500μM, telomere repeat 3
  ln(100-%LB): 1.54 and 1.27
[2]; ddITP 500μM, telomere repeat 4
  ln(100-%LB): 0.70 and 0.51
[2]; ddITP 750μM
  YIntercept (line fit of ln(100-%LB) vs # telomere repeats): 4.67 and 4.49
[2]; ddITP 750μM, telomere repeat 1
  ln(100-%LB): 3.72 and 3.79
[2]; ddITP 750μM, telomere repeat 2
  ln(100-%LB): 2.57 and 2.74
[2]; ddITP 750μM, telomere repeat 3
  ln(100-%LB): 1.55 and 1.58
[2]; ddITP 750μM, telomere repeat 4
  ln(100-%LB): 0.67 and 0.79
[2]; ddITP 1000μM
  YIntercept (line fit of ln(100-%LB) vs # telomere repeats): 4.63 and 4.20
[2]; ddITP 1000μM, telomere repeat 1
  ln(100-%LB): 3.82 and 3.80
[2]; ddITP 1000μM, telomere repeat 2
  ln(100-%LB): 3.01 and 3.04
[2]; ddITP 1000μM, telomere repeat 3
  ln(100-%LB): 2.22 and 2.25
[2]; ddITP 1000μM, telomere repeat 4
  ln(100-%LB): 1.56 and 1.76
[2]; ddITP 1000μM, telomere repeat 5
  ln(100-%LB): 0.86 and 1.29
[2]; ddITP 1500
  Slope (line fit of ln(100-%LB) vs # telomere repeats): -0.86
  YIntercept (line fit of ln(100-%LB) vs # telomere repeats): 4.62 and 4.48
[2]; ddITP 1500, telomere repeat 1
  ln(100-%LB): 3.74 and 3.65
[2]; ddITP 1500, telomere repeat 2
  ln(100-%LB): 2.90 and 2.79
[2]; ddITP 1500, telomere repeat 3
  ln(100-%LB): 2.03 and 1.76
[2]; ddITP 1500, telomere repeat 4
  ln(100-%LB): 1.25 and 1.21
[2]; ddITP 1500, telomere repeat 5
  ln(100-%LB): 0.25 and 0.17
[2]; [3]
  Best-fit values HillSlope: -1.214 and -1.087 and -1.6
  Best-fit values Span: 1.373 and 2.642 and 1.489
[2]; dose-response fit of processivity R 1/2, log of concentration in μM, individual replicates
  Best-fit values LogIC50: 1.601 and 1.931 and 1.751
[2]; [4]
  Best-fit values Bottom: 0.6806 and 0.1353 and 0.7679
  Best-fit values Top: 2.054 and 2.778 and 2.257
[2]; log of processivity IC50 (concentration in μM), Supplementary Fig 8b, read-out: Log IC50 (converted)
  IC50: 63.1 µM
[2]; modified dNTP concentration 31.25 μM, individual replicates n1-n3
  Processivity R 1/2: 1.52 and 2.08 and 1.82
[2]; modified dNTP concentration 62.5 μM, individual replicates
  Processivity R 1/2: 1.13 and 1.82
[2]; modified dNTP concentration 250 μM, individual replicates
  Processivity R 1/2: 0.87 and 0.71
[2]; modified dNTP concentration 500 μM, individual replicates
  Processivity R 1/2: 0.8 and 0.73 (2×)
[2]; modified dNTP concentration 750 μM, individual replicates
  Processivity R 1/2: 0.8 and 0.49
[2]; modified dNTP concentration 1000 μM, individual replicates
  Processivity R 1/2: 0.69 (2×) and 0.47
[2]; modified dNTP concentration 1500 μM, individual replicates
  Processivity R 1/2: 0.81 and 0.26 and 0.88
[2]; modified dNTP concentration 2000 μM, individual replicates
  Processivity R 1/2: 0.45 and 0 and 0.81
[2]; repeat processivity R 1/2, individual replicates N1-N3, read-out: Best-fit values IC50
  IC50: 39.9 µM and 85.3 µM and 56.4 µM
[2]; repeat processivity R 1/2, mean of replicates, read-out: Mean IC50
  IC50: 60.5 µM
